Test results published in PubChem BioAssay AID2060616 (Molecular Pharmacology Branch, DTP, NCI, 2025).

System: 377384-186-R-J1-PDC complex spheroid viability
Assay: Anticancer human tumor 377384-186-R-J1-PDC patient-derived pancreatic carcinoma cell line growth inhibition [CLK]
Conditions: for IC50: curve of first compound; for viability, T/C: stronger effect = lower value
Method in brief: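 Multi-cell-type spheroids combined patient-derived tumor cells with HUVEC endothelial cells and human mesenchymal stem cells. Paired agents were dosed in half-log steps down from about clinical Cmax, or from 10 microM where Cmax was unknown.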

[1] = second compound 0.0316 µM, first compound 0.0316 µM
[2] = second compound 0.0316 µM, first compound 0.1 µM
[3] = second compound 0.0316 µM, first compound 0.316 µM
[4] = second compound 0.0316 µM, first compound 1 µM
[5] = second compound 0.0316 µM, first compound 3.16 µM
[6] = second compound 0.0316 µM, first compound 10 µM
[7] = second compound 0.1 µM, first compound 0.0316 µM
[8] = second compound 0.1 µM, first compound 0.1 µM
[9] = second compound 0.1 µM, first compound 0.316 µM
[10] = second compound 0.1 µM, first compound 1 µM
[11] = second compound 0.1 µM, first compound 3.16 µM
[12] = second compound 0.1 µM, first compound 10 µM
[13] = second compound 0.316 µM, first compound 0.0316 µM
[14] = second compound 0.316 µM, first compound 0.1 µM
[15] = second compound 0.316 µM, first compound 0.316 µM
[16] = second compound 0.316 µM, first compound 1 µM
[17] = second compound 0.316 µM, first compound 3.16 µM
[18] = second compound 0.316 µM, first compound 10 µM
[19] = second compound 1 µM, first compound 0.0316 µM
[20] = second compound 1 µM, first compound 0.1 µM
[21] = second compound 1 µM, first compound 0.316 µM
[22] = second compound 1 µM, first compound 1 µM
[23] = second compound 1 µM, first compound 3.16 µM
[24] = second compound 1 µM, first compound 10 µM
[25] = second compound 3.16 µM, first compound 0.0316 µM
[26] = second compound 3.16 µM, first compound 0.1 µM
[27] = second compound 3.16 µM, first compound 0.316 µM
[28] = second compound 3.16 µM, first compound 1 µM
[29] = second compound 3.16 µM, first compound 3.16 µM
[30] = second compound 3.16 µM, first compound 10 µM
[31] = second compound 10 µM, first compound 0.0316 µM
[32] = second compound 10 µM, first compound 0.1 µM
[33] = second compound 10 µM, first compound 0.316 µM
[34] = second compound 10 µM, first compound 1 µM
[35] = second compound 10 µM, first compound 3.16 µM
[36] = second compound 10 µM, first compound 10 µM
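Also: spheroids exposed to agents for 7 days before reading.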
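For viability, T/C in this document: luminescence signal used as a stand-in for viable cells.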

CC(=O)O[C@H]1C(=O)[C@@]2(C)[C@H]([C@H](OC(=O)c3ccccc3)[C@]3(O)C[C@H](OC(=O)[C@H](O)[C@@H](NC(=O)c4ccccc4)c4ccccc4)C(C)=C1C3(C)C)[C@]1(OC(C)=O)CO[C@@H]1C[C@@H]2O + CNC(=O)c1ccc(Nc2nc(OC3CCCC3)c3c(-c4ccc5nc(C)oc5c4)c[nH]c3n2)c(OC)c1
IC50 (second compound 0.0316 µM): < 0.0316 µM
IC50 (second compound 0.1 µM): < 0.0316 µM
IC50 (second compound 0.316 µM): < 0.0316 µM
IC50 (second compound 1 µM): < 0.0316 µM
IC50 (second compound 3.16 µM): < 0.0316 µM
IC50 (second compound 10 µM): < 0.0316 µM
viability, T/C [1]: 11.1%
viability, T/C [2]: 9.78%
viability, T/C [3]: 11.1%
viability, T/C [4]: 10.2%
viability, T/C [5]: 12.7%
viability, T/C [6]: 20.1%
viability, T/C [7]: 14.4%
viability, T/C [8]: 16.9%
viability, T/C [9]: 20.5%
viability, T/C [10]: 21.8%
viability, T/C [11]: 28.9%
viability, T/C [12]: 35.2%
viability, T/C [13]: 20%
viability, T/C [14]: 21.2%
viability, T/C [15]: 29%
viability, T/C [16]: 36.6%
viability, T/C [17]: 42.3%
viability, T/C [18]: 47.3%
viability, T/C [19]: 21.7%
viability, T/C [20]: 22.3%
viability, T/C [21]: 29.6%
viability, T/C [22]: 37.9%
viability, T/C [23]: 40.5%
viability, T/C [24]: 49.1%
viability, T/C [25]: 18%
viability, T/C [26]: 21.7%
viability, T/C [27]: 27.5%
viability, T/C [28]: 34.4%
viability, T/C [29]: 38.6%
viability, T/C [30]: 45.5%
viability, T/C [31]: 17.7%
viability, T/C [32]: 22.3%
viability, T/C [33]: 29.7%
viability, T/C [34]: 37.2%
viability, T/C [35]: 38.7%
viability, T/C [36]: 42.8%

CCc1c2c(nc3ccc(O)cc13)-c1cc3c(c(=O)n1C2)COC(=O)[C@]3(O)CC + CNC(=O)c1ccc(Nc2nc(OC3CCCC3)c3c(-c4ccc5nc(C)oc5c4)c[nH]c3n2)c(OC)c1
IC50 (second compound 0.0316 µM): < 0.00316 µM
IC50 (second compound 0.1 µM): < 0.00316 µM
IC50 (second compound 0.316 µM): < 0.00316 µM
IC50 (second compound 1 µM): < 0.00316 µM
IC50 (second compound 3.16 µM): < 0.00316 µM
IC50 (second compound 10 µM): < 0.00316 µM
viability, T/C (second compound 0.0316 µM, first compound 0.00316 µM): 25.8%
viability, T/C (second compound 0.0316 µM, first compound 0.01 µM): 11.6%
viability, T/C [1]: 4.72%
viability, T/C [2]: 2.28%
viability, T/C [3]: 1.46%
viability, T/C [4]: 0.55%
viability, T/C (second compound 0.1 µM, first compound 0.00316 µM): 17.5%
viability, T/C (second compound 0.1 µM, first compound 0.01 µM): 9.08%
viability, T/C [7]: 4.28%
viability, T/C [8]: 2.07%
viability, T/C [9]: 1.21%
viability, T/C [10]: 0.63%
viability, T/C (second compound 0.316 µM, first compound 0.00316 µM): 10.7%
viability, T/C (second compound 0.316 µM, first compound 0.01 µM): 7%
viability, T/C [13]: 3.57%
viability, T/C [14]: 2.54%
viability, T/C [15]: 1.19%
viability, T/C [16]: 0.53%
viability, T/C (second compound 1 µM, first compound 0.00316 µM): 12.9%
viability, T/C (second compound 1 µM, first compound 0.01 µM): 8.91%
viability, T/C [19]: 3.7%
viability, T/C [20]: 1.76%
viability, T/C [21]: 1.06%
viability, T/C [22]: 0.66%
viability, T/C (second compound 3.16 µM, first compound 0.00316 µM): 14.4%
viability, T/C (second compound 3.16 µM, first compound 0.01 µM): 8.07%
viability, T/C [25]: 3.3%
viability, T/C [26]: 1.8%
viability, T/C [27]: 1.68%
viability, T/C [28]: 0.58%
viability, T/C (second compound 10 µM, first compound 0.00316 µM): 13.4%
viability, T/C (second compound 10 µM, first compound 0.01 µM): 8.53%
viability, T/C [31]: 3.76%
viability, T/C [32]: 1.55%
viability, T/C [33]: 0.98%
viability, T/C [34]: 0.79%

COc1cccc2c1C(=O)c1c(O)c3c(c(O)c1C2=O)CC(O)(C(=O)CO)CC3OC1CC(N)C(O)C(C)O1 (stereo unspecified) + CNC(=O)c1ccc(Nc2nc(OC3CCCC3)c3c(-c4ccc5nc(C)oc5c4)c[nH]c3n2)c(OC)c1
IC50 (second compound 0.0316 µM): < 0.0316 µM
IC50 (second compound 0.1 µM): < 0.0316 µM
IC50 (second compound 0.316 µM): < 0.0316 µM
IC50 (second compound 1 µM): < 0.0316 µM
IC50 (second compound 3.16 µM): < 0.0316 µM
IC50 (second compound 10 µM): < 0.0316 µM
viability, T/C [1]: 10.2%
viability, T/C [2]: 4.37%
viability, T/C [3]: 1.55%
viability, T/C [4]: 0.38%
viability, T/C [5]: 3.07%
viability, T/C [6]: 5.83%
viability, T/C [7]: 9.1%
viability, T/C [8]: 3.91%
viability, T/C [9]: 1.38%
viability, T/C [10]: 0.45%
viability, T/C [11]: 3.75%
viability, T/C [12]: 7.17%
viability, T/C [13]: 9.14%
viability, T/C [14]: 3.32%
viability, T/C [15]: 1.45%
viability, T/C [16]: 0.82%
viability, T/C [17]: 4.73%
viability, T/C [18]: 9.99%
viability, T/C [19]: 7.32%
viability, T/C [20]: 2.1%
viability, T/C [21]: 0.65%
viability, T/C [22]: 0.52%
viability, T/C [23]: 3.63%
viability, T/C [24]: 11.6%
viability, T/C [25]: 9.23%
viability, T/C [26]: 1.54%
viability, T/C [27]: 0.4%
viability, T/C [28]: 0.63%
viability, T/C [29]: 5.3%
viability, T/C [30]: 7.54%
viability, T/C [31]: 7.12%
viability, T/C [32]: 2.27%
viability, T/C [33]: 0.51%
viability, T/C [34]: 1.07%
viability, T/C [35]: 5.51%
viability, T/C [36]: 9.57%
